Laboratory results reported in PubChem BioAssay (NCI).
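GI50 is the concentration that inhibits growth by half. TGI: concentration producing complete growth inhibition.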

Columns and labels:
Assay in all cases: DTP human tumour cell line panel, 384-well format
IGROV1 ovarian = system: IGROV1 ovarian
RPMI-8226 leukemia = system: RPMI-8226 leukemia
SR leukemia = system: SR leukemia
SK-MEL-5 melanoma = system: SK-MEL-5 melanoma
HOP-62 NSCLC = system: HOP-62 NSCLC
HCC-2998 colon = system: HCC-2998 colon
HCT-116 colon = system: HCT-116 colon
SK-MEL-28 melanoma = system: SK-MEL-28 melanoma
OVCAR-5 ovarian = system: OVCAR-5 ovarian
OVCAR-4 ovarian = system: OVCAR-4 ovarian
SF-268 CNS = system: SF-268 CNS
786-0 renal = system: 786-0 renal
HCT-15 colon = system: HCT-15 colon
NCI-H460 NSCLC = system: NCI-H460 NSCLC
UACC-62 melanoma = system: UACC-62 melanoma
MOLT-4 leukemia = system: MOLT-4 leukemia
MCF7 breast = system: MCF7 breast
UO-31 renal = system: UO-31 renal
HT29 colon = system: HT29 colon
MDA-MB-468 breast = system: MDA-MB-468 breast
SK-OV-3 ovarian = system: SK-OV-3 ovarian
LOX IMVI melanoma = system: LOX IMVI melanoma
MDA-MB-231 breast = system: MDA-MB-231 breast
NCI-H23 lung = system: NCI-H23 lung
EKVX NSCLC = system: EKVX NSCLC
NCI-H322M lung = system: NCI-H322M lung
HOP-92 NSCLC = system: HOP-92 NSCLC
RXF 393 renal = system: RXF 393 renal
SF-295 CNS = system: SF-295 CNS
A549 NSCLC = system: A549 NSCLC
PC-3 prostate = system: PC-3 prostate
TK-10 renal = system: TK-10 renal
BT-549 breast = system: BT-549 breast
ACHN renal = system: ACHN renal
CAKI-1 renal = system: CAKI-1 renal
MALME-3M melanoma = system: MALME-3M melanoma
UACC-257 melanoma = system: UACC-257 melanoma
SN12C renal = system: SN12C renal
T-47D breast = system: T-47D breast
COLO 205 colon = system: COLO 205 colon
OVCAR-3 ovarian = system: OVCAR-3 ovarian
HS 578T breast = system: HS 578T breast
NCI-H226 lung = system: NCI-H226 lung
KM12 colon = system: KM12 colon
MDA-MB-435 melanoma = system: MDA-MB-435 melanoma
SF-539 CNS = system: SF-539 CNS
U251 glioblastoma = system: U251 glioblastoma
SW-620 colon = system: SW-620 colon
SNB-75 CNS = system: SNB-75 CNS
SNB-19 CNS = system: SNB-19 CNS
M14 melanoma = system: M14 melanoma
OVCAR-8 ovarian = system: OVCAR-8 ovarian
NCI/ADR-RES ovarian = system: NCI/ADR-RES ovarian
A498 renal = system: A498 renal
NCI-H522 lung = system: NCI-H522 lung
HL-60(TB) leukemia = system: HL-60(TB) leukemia
CCRF-CEM leukemia = system: CCRF-CEM leukemia
DU-145 prostate = system: DU-145 prostate

Q: Which GI50 (IGROV1 ovarian) does the source give for C[C@H](Nc1ncnc2nc[nH]c12)c1cc2cccc(Cl)c2c(=O)n1-c1ccccc1 here?
A: 2.43 µM

Q: And the TGI (IGROV1 ovarian)?
A: 10.2 µM

Q: And the GI50 (RPMI-8226 leukemia)?
A: 25.2 µM

Q: And the TGI (RPMI-8226 leukemia)?
A: > 78.7 µM

Q: And the GI50 (SR leukemia)?
A: 14 µM

Q: And the TGI (SR leukemia)?
A: 40.1 µM

Q: And the GI50 (SK-MEL-5 melanoma)?
A: 18.2 µM

Q: And the TGI (SK-MEL-5 melanoma)?
A: > 85.1 µM

Q: And the GI50 (HOP-62 NSCLC)?
A: 30.7 µM

Q: What about the TGI (HOP-62 NSCLC) of the same molecule?
A: > 100 µM

Q: And the GI50 (HCC-2998 colon)?
A: 29.7 µM

Q: What about the TGI (HCC-2998 colon) of the same molecule?
A: 92.1 µM

Q: What about the GI50 (HCT-116 colon) of the same molecule?
A: 28.7 µM

Q: And the TGI (HCT-116 colon)?
A: > 100 µM

Q: What about the GI50 (SK-MEL-28 melanoma) of the same molecule?
A: 8.44 µM

Q: And the TGI (SK-MEL-28 melanoma)?
A: 98.8 µM

Q: What about the GI50 (OVCAR-5 ovarian) of the same molecule?
A: 32.9 µM

Q: And the TGI (OVCAR-5 ovarian)?
A: > 100 µM

Q: And the GI50 (OVCAR-4 ovarian)?
A: 11.4 µM

Q: And the TGI (OVCAR-4 ovarian)?
A: 90.6 µM

Q: What about the GI50 (SF-268 CNS) of the same molecule?
A: 24.7 µM

Q: And the TGI (SF-268 CNS)?
A: > 84.7 µM

Q: What about the GI50 (786-0 renal) of the same molecule?
A: 2.8 µM

Q: What about the TGI (786-0 renal) of the same molecule?
A: > 64.9 µM

Q: And the GI50 (HCT-15 colon)?
A: 35.2 µM

Q: And the TGI (HCT-15 colon)?
A: > 100 µM

Q: What about the GI50 (NCI-H460 NSCLC) of the same molecule?
A: 15.9 µM

Q: What about the TGI (NCI-H460 NSCLC) of the same molecule?
A: > 100 µM

Q: What about the GI50 (UACC-62 melanoma) of the same molecule?
A: 5.86 µM

Q: What about the TGI (UACC-62 melanoma) of the same molecule?
A: > 64.2 µM

Q: What about the GI50 (MOLT-4 leukemia) of the same molecule?
A: 2.37 µM

Q: What about the TGI (MOLT-4 leukemia) of the same molecule?
A: 12.5 µM

Q: What about the GI50 (MCF7 breast) of the same molecule?
A: 4.31 µM

Q: What about the TGI (MCF7 breast) of the same molecule?
A: > 100 µM

Q: What about the GI50 (UO-31 renal) of the same molecule?
A: 3.89 µM

Q: What about the TGI (UO-31 renal) of the same molecule?
A: > 93.1 µM

Q: And the GI50 (HT29 colon)?
A: 18.8 µM

Q: And the TGI (HT29 colon)?
A: > 100 µM

Q: And the GI50 (MDA-MB-468 breast)?
A: 1.23 µM

Q: What about the TGI (MDA-MB-468 breast) of the same molecule?
A: 14.9 µM

Q: What about the GI50 (SK-OV-3 ovarian) of the same molecule?
A: 14.3 µM

Q: And the TGI (SK-OV-3 ovarian)?
A: > 79.2 µM

Q: What about the GI50 (LOX IMVI melanoma) of the same molecule?
A: 32.5 µM

Q: What about the TGI (LOX IMVI melanoma) of the same molecule?
A: > 100 µM

Q: What about the GI50 (MDA-MB-231 breast) of the same molecule?
A: 25.5 µM

Q: What about the TGI (MDA-MB-231 breast) of the same molecule?
A: > 100 µM

Q: And the GI50 (NCI-H23 lung)?
A: 25.9 µM

Q: And the TGI (NCI-H23 lung)?
A: > 100 µM

Q: What about the GI50 (EKVX NSCLC) of the same molecule?
A: 15.2 µM

Q: What about the TGI (EKVX NSCLC) of the same molecule?
A: > 100 µM

Q: What about the GI50 (NCI-H322M lung) of the same molecule?
A: 15.5 µM

Q: And the TGI (NCI-H322M lung)?
A: > 72 µM

Q: And the GI50 (HOP-92 NSCLC)?
A: 2.31 µM

Q: And the TGI (HOP-92 NSCLC)?
A: 77.7 µM

Q: What about the GI50 (RXF 393 renal) of the same molecule?
A: 0.104 µM

Q: What about the TGI (RXF 393 renal) of the same molecule?
A: 1.3 µM

Q: And the GI50 (SF-295 CNS)?
A: 4.95 µM

Q: What about the TGI (SF-295 CNS) of the same molecule?
A: > 40.2 µM

Q: And the GI50 (A549 NSCLC)?
A: 14.5 µM

Q: And the TGI (A549 NSCLC)?
A: > 90.4 µM

Q: What about the GI50 (PC-3 prostate) of the same molecule?
A: 1.46 µM

Q: And the TGI (PC-3 prostate)?
A: > 79.5 µM

Q: What about the GI50 (TK-10 renal) of the same molecule?
A: 15 µM

Q: And the TGI (TK-10 renal)?
A: > 100 µM

Q: And the GI50 (BT-549 breast)?
A: 1.29 µM

Q: What about the TGI (BT-549 breast) of the same molecule?
A: 36.6 µM

Q: And the GI50 (ACHN renal)?
A: 16.8 µM

Q: What about the TGI (ACHN renal) of the same molecule?
A: > 100 µM

Q: What about the GI50 (CAKI-1 renal) of the same molecule?
A: 4.09 µM

Q: What about the TGI (CAKI-1 renal) of the same molecule?
A: > 80 µM

Q: What about the GI50 (MALME-3M melanoma) of the same molecule?
A: 6.18 µM

Q: And the TGI (MALME-3M melanoma)?
A: 49.8 µM

Q: What about the GI50 (UACC-257 melanoma) of the same molecule?
A: 27 µM

Q: And the TGI (UACC-257 melanoma)?
A: > 100 µM

Q: What about the GI50 (SN12C renal) of the same molecule?
A: 3.25 µM

Q: What about the TGI (SN12C renal) of the same molecule?
A: > 100 µM

Q: What about the GI50 (T-47D breast) of the same molecule?
A: 1.6 µM

Q: What about the TGI (T-47D breast) of the same molecule?
A: 17.6 µM

Q: And the GI50 (COLO 205 colon)?
A: 42.8 µM

Q: What about the TGI (COLO 205 colon) of the same molecule?
A: > 100 µM

Q: And the GI50 (OVCAR-3 ovarian)?
A: 3.65 µM

Q: What about the TGI (OVCAR-3 ovarian) of the same molecule?
A: > 48.4 µM

Q: What about the GI50 (HS 578T breast) of the same molecule?
A: 3.41 µM

Q: What about the TGI (HS 578T breast) of the same molecule?
A: 27.7 µM

Q: And the GI50 (NCI-H226 lung)?
A: 33.4 µM

Q: And the TGI (NCI-H226 lung)?
A: > 100 µM

Q: And the GI50 (KM12 colon)?
A: 43.2 µM

Q: And the TGI (KM12 colon)?
A: > 100 µM

Q: What about the GI50 (MDA-MB-435 melanoma) of the same molecule?
A: > 100 µM

Q: And the TGI (MDA-MB-435 melanoma)?
A: > 100 µM

Q: What about the GI50 (SF-539 CNS) of the same molecule?
A: 19.7 µM

Q: And the TGI (SF-539 CNS)?
A: > 100 µM

Q: And the GI50 (U251 glioblastoma)?
A: 47.3 µM

Q: And the TGI (U251 glioblastoma)?
A: > 100 µM

Q: And the GI50 (SW-620 colon)?
A: > 100 µM

Q: What about the TGI (SW-620 colon) of the same molecule?
A: > 100 µM

Q: And the GI50 (SNB-75 CNS)?
A: 0.103 µM

Q: And the TGI (SNB-75 CNS)?
A: 2.41 µM

Q: What about the GI50 (SNB-19 CNS) of the same molecule?
A: 44.5 µM

Q: What about the TGI (SNB-19 CNS) of the same molecule?
A: > 100 µM

Q: What about the GI50 (M14 melanoma) of the same molecule?
A: 23.9 µM

Q: What about the TGI (M14 melanoma) of the same molecule?
A: > 100 µM

Q: What about the GI50 (OVCAR-8 ovarian) of the same molecule?
A: 25.8 µM

Q: And the TGI (OVCAR-8 ovarian)?
A: > 100 µM

Q: And the GI50 (NCI/ADR-RES ovarian)?
A: > 100 µM

Q: What about the TGI (NCI/ADR-RES ovarian) of the same molecule?
A: > 100 µM

Q: And the GI50 (A498 renal)?
A: 1.09 µM

Q: What about the TGI (A498 renal) of the same molecule?
A: 12.8 µM

Q: And the GI50 (NCI-H522 lung)?
A: 16.8 µM

Q: And the TGI (NCI-H522 lung)?
A: > 83.3 µM

Q: And the GI50 (HL-60(TB) leukemia)?
A: 3.53 µM

Q: And the TGI (HL-60(TB) leukemia)?
A: > 36.4 µM

Q: And the GI50 (CCRF-CEM leukemia)?
A: 4.6 µM

Q: And the TGI (CCRF-CEM leukemia)?
A: 90.7 µM

Q: And the GI50 (DU-145 prostate)?
A: 24.6 µM

Q: And the TGI (DU-145 prostate)?
A: > 100 µM
